In one test the target is T1, Acetylcholinesterase (Rattus norvegicus, UniProt P37136).
T1 sequence (P37136 whole entry): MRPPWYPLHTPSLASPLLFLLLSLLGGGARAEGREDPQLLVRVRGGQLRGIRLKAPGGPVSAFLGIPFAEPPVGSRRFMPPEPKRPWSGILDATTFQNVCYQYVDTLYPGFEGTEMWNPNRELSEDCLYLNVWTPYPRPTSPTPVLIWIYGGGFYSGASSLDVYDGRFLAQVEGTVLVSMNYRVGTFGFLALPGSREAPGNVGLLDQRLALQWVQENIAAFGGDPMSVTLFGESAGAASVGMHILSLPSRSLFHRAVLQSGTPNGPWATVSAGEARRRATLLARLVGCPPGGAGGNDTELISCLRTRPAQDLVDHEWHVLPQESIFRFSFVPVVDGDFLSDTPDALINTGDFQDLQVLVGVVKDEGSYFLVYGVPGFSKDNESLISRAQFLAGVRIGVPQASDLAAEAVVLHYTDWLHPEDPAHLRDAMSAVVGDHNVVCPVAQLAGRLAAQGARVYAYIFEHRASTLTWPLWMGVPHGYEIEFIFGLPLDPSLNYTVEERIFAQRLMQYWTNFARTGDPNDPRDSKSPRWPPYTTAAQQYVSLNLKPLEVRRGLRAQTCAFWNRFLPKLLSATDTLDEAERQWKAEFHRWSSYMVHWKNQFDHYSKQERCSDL
The experiment in a line: Inhibition of AChE from rat cortex homogenate by Ellmans method.

The next test addresses Butyrylcholinesterase (Rattus norvegicus, UniProt Q9JKC1). The experiment in a line: Inhibition of BChE from rat serum by Ellmans method. Format: cell-free.

Sequence of Butyrylcholinesterase (Q9JKC1 whole entry): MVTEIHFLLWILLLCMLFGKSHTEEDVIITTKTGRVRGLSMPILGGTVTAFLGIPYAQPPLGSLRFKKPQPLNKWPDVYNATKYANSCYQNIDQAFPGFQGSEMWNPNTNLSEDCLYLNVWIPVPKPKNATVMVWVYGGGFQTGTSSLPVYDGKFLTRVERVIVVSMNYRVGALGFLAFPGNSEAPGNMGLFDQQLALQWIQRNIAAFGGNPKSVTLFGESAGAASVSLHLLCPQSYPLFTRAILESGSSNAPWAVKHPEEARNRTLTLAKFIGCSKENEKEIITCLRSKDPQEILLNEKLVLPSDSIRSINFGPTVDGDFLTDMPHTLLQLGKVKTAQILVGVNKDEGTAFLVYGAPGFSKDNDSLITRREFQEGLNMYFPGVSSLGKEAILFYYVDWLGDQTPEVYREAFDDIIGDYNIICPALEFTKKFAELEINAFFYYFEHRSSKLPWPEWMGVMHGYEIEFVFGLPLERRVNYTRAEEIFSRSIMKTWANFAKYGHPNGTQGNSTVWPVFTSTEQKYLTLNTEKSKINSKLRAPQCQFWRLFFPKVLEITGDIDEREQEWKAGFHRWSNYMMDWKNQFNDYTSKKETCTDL

`COc1ccc2c3c1O[C@H]1C[C@@H](O)C=C[C@@]31CCN(CCCCCCOc1ccc(C(=O)N3CCCC3)cc1)C2`: the IC50 amounted to 122 nM against Acetylcholinesterase and 9.4 µM at Butyrylcholinesterase. The matching figures for `COc1ccc2c3c1O[C@H]1C[C@@H](O)C=C[C@@]31CCN(CCCOc1ccc(CN3CCCCC3)cc1)C2`: 18 nM and 24 µM.

Consider `COc1ccc2c3c1O[C@H]1C[C@@H](O)C=C[C@@]31CCN(CCCCOC1CCN(Cc3ccccc3)CC1)C2`, for which the IC50 at Acetylcholinesterase was found to be 306 nM; against Butyrylcholinesterase, 4.3 µM.

For `COc1ccc2c3c1O[C@H]1C[C@@H](O)C=C[C@@]31CCN(CCOc1ccc(CN3CCCCC3)cc1)C2`, the results for the IC50 at Acetylcholinesterase and against Butyrylcholinesterase were 24.5 nM and 21 µM, respectively. On the same counts, the results for `CCN(CC)Cc1ccc(OCCCCCCN2CC[C@@]34C=C[C@H](O)C[C@@H]3Oc3c(OC)ccc(c34)C2)cc1` are 8.86 nM and 41 µM. On the same counts, the results for `COc1ccc2c3c1O[C@H]1C[C@@H](O)C=C[C@@]31CCN(CCCCCCOc1cccc(C(C)N3CCOCC3)c1)C2` (some centres not stated) are 154 nM and 5.8 µM.

For `COc1ccc2c3c1O[C@H]1C[C@@H](O)C=C[C@@]31CCN(CCCCOc1ccc(C(=O)N3CCCC3)cc1)C2`, the results for the IC50 on Acetylcholinesterase and at Butyrylcholinesterase were 53.8 nM and 5.6 µM, respectively. On the same counts, the results for `COc1ccc2c3c1O[C@H]1C[C@@H](O)C=C[C@@]31CCN(CCCCOc1ccc(CN3CCCCC3)cc1)C2` are 12.4 nM and 28 µM.

`COc1ccc2c3c1O[C@H]1C[C@@H](O)C=C[C@@]31CCN(CCCCCCCCCCCCOc1ccc(CN3CCCCC3)cc1)C2`: the IC50 was found to be 58.1 nM against Acetylcholinesterase and 1.2 µM against Butyrylcholinesterase. As to `COc1ccc2c3c1O[C@H]1C[C@@H](O)C=C[C@@]31CCN(CCCCCOc1ccc(CN3CCCCC3)cc1)C2`, the 50% inhibitory concentration (IC50) on Butyrylcholinesterase came out at 29 µM.

`COc1ccc2c3c1O[C@H]1C[C@@H](O)C=C[C@@]31CCN(CCCCOc1cccc(C(C)N3CCOCC3)c1)C2` (some centres not stated): the IC50 against Acetylcholinesterase was 94.1 nM; against Butyrylcholinesterase, 7.1 µM. The matching figures for `COc1ccc2c3c1O[C@H]1C[C@@H](O)C=C[C@@]31CCN(CCCCCCCCOc1ccc(CN3CCCCC3)cc1)C2`: 34.7 nM and 53 µM. On the same counts, the results for `COc1ccc2c3c1O[C@H]1C[C@@H](O)C=C[C@@]31CCN(CCCCOc1ccc(CN3CCOCC3)cc1)C2` are 99.1 nM and 3.3 µM. Regarding `COc1ccc2c3c1O[C@H]1C[C@@H](O)C=C[C@@]31CCN(CCCCCCCCCOc1ccc(CN3CCCCC3)cc1)C2`, the concentration for half-maximal inhibition (IC50) was found to be 88.1 nM against Acetylcholinesterase and 64 µM against Butyrylcholinesterase. The matching figures for `CCN(CC)Cc1ccc(OCCCCN2CC[C@@]34C=C[C@H](O)C[C@@H]3Oc3c(OC)ccc(c34)C2)cc1`: 14.6 nM and 34 µM. The matching figures for `COc1ccc2c3c1O[C@H]1C[C@@H](O)C=C[C@@]31CCN(CCCCCCOC1CCN(Cc3ccccc3)CC1)C2`: 222 nM and 5.5 µM.

With `COc1ccc2c3c1O[C@H]1C[C@@H](O)C=C[C@@]31CCN(CCCCCCCCCCOc1ccc(CN3CCCCC3)cc1)C2`, the values for the half-maximal inhibitory concentration (IC50) at Acetylcholinesterase and at Butyrylcholinesterase were 61.2 nM and 93 µM, respectively.

As for `COc1ccc2c3c1O[C@H]1C[C@@H](O)C=C[C@@]31CCN(CCCCCCOc1ccc(CN3CCCCC3)cc1)C2`, the IC50 was 5.62 nM on Acetylcholinesterase and 33 µM at Butyrylcholinesterase.

Take `COc1ccc2c3c1O[C@H]1C[C@@H](O)C=C[C@@]31CCN(CCCCCCOc1ccc(CN3CCOCC3)cc1)C2`: the IC50 against Acetylcholinesterase was determined as 113 nM; against Butyrylcholinesterase, 3.9 µM.

By IC50 is commonly meant the midpoint of a concentration-inhibition curve. High values mean lower potency, low ones higher potency.

The values above are taken from ChEMBL document CHEMBL1153866, “Design, synthesis and evaluation of galanthamine derivatives as acetylcholinesterase inhibitors” (Eur J Med Chem, 2009).
